Laboratory results published in patent US20180078916A1, “LIGNIN-BASED SURFACTANTS” (CARNEGIE MELLON UNIVERSITY, priority 2015, published 2018).

System: corn plants
Experiment: clethodim application to corn plants with tank-mix adjuvants, % inhibition versus untreated control plants
Format: in vivo
Conditions: clethodim 1 fluid ounce/acre without tank-mix adjuvants, 7 days following treatment
Text: Various surfactants are used as adjuvants for agrochemicals to enhance deposition and penetration through plant surfaces. Two commercial tank-mix adjuvant systems that may be used for comparison are PRIME OIL® and SUPERB® HC (available from Winfield Solutions, LLC of Shoreview, Minn.), which are high surfactant oil concentrates. Representative studied were based on delivery of clethodim at 1 fluid ounce/acre, a commercial herbicide that inhibits growth of certain plants. A measure of effectiveness was the % inhibition (with 0% being no inhibition) compared to untreated control plants. Photographs (a)-(e) of FIG. 11 provide images of corn plants (corn being a common contaminant crop in soybean fields) treated with different formulations 7 days after treatment. Comparatively good results are obtained with clethodim and KLPEG900. Lignin adjuvant activity appeared to be higher at 0.05% v/v that 0.1% v/v.
FIG. 12 illustrates a graph wherein % inhibition is plotted for the different formulations 7 days following treatment.

Structure (SMILES): CCSC(C)CC1CC(=O)C(/C(CC)=N/OC/C=C/Cl)=C(O)C1 (stereo not shown) [Clethodim, clethodim]
- % inhibition: 54.4%
